According to patent US20250339569A1, “CARBONIC ANHYDRASE IX LIGANDS” (priority 2021, published 2025):
Where two headings read alike, the source gives them in different places. Starred links: 1 amine or outer side, 2 acyl side, 3 side chain; linkers in the order of their positions; H or OH if unused. Positions of bridges follow the written chain, without caps; N, C: chain ends. Non-standard residues stand in square brackets, D forms with d. Residues, ends and D or L forms follow the SMILES beside them. *: point of attachment. DOTA = O=C(O)CN1CCN(CC(=O)O)CCN(CC(=O)*)CCN(CC(=O)O)CC1; X22 = CC(C)CC(=O)Nc1cccc(C[C@H](N[*:1])C(=O)[*:2])c1; mXylylene = c1cc(C[*:1])cc(C[*:2])c1; X12 = O=C(CC1CCN([*:1])CC1)[*:2]; X2 = O=C(CN1CCC(N[*:1])CC1)[*:2]; 3Amb = NCc1cccc(C(=O)O)c1; 4Amb = NCc1ccc(C(=O)O)cc1; Dap = NC[C@H](N)C(=O)O; Inp = O=C(O)C1CCNCC1; GABA = NCCCC(=O)O

Experiments:
[1] = molecular target: T1, CAIX-expressing human HT-29 colorectal cancer cells (Homo sapiens, UniProt Q16790); assay: FACS binding assay (IC50 determination, competition with tracer 3BP-2776 or 3BP-4149); details: FACS binding assay, HT-29 cells, 4° C., 1 hour, read-out: pIC50 category (activity) (converted)
T1 construct: CAIX-expressing human HT-29 colorectal cancer cells; host or cells: HT-29 human colorectal cancer cells
In short: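 HT-29 cells in FACS buffer (PBS, 1% FCS) at 500.000 cells/ml were exposed to compounds competing with a labelled tracer, with biotinylated compounds detected by 1 μg/mL APC-streptavidin for 30 min on ice. APC/Cy5 median fluorescence was read by flow cytometry and IC50 derived by 4PL fit.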

[2] = molecular target: T2, human carbonic anhydrase IX (hCAIX-Fc) (Homo sapiens, UniProt Q16790); assay: Surface plasmon resonance assay with hCAIX-Fc; format: binding; details: 25° C.; for t1/2 category (activity): SPR dissociation half-life, hCAIX-Fc; for Kd: SPR, hCAIX-Fc captured, read-out: pKD category (activity) (converted)
T2 construct: purchased SinoBliological (Sino Biological) 10107-H02H

[3] = competition with tracer 3BP-2776 (10 nM, biotin-labeled)
[4] = competition with tracer 3BP-4149 (3 nM, Cy5-labeled)

Row | SMILES | IC50 [1, 3] | t1/2 category (activity) [2] | Kd [2] | IC50 [1, 4]
1 | CC(C)C[C@@H]1NC(=O)[C@H](Cc2c[nH]c3ccccc23)NC(=O)[C@H](CC(=O)O)NC(=O)[C@H]2CCCN2C(=O)[C@H](CCC(=O)O)NC(=O)[C@@H]2CSCc3cccc(c3)CSC[C@@H](C(N)=O)NC(=O)[C@H](CNC(=O)CC[C@H](NC(=O)[C@@H](NC(=O)CN3CCC(NC(=O)CN4CCN(CC(=O)O)CCN(CC(=O)O)CCN(CC(=O)O)CC4)CC3)C(C)C)C(=O)N2)NC(=O)[C@H](Cc2c[nH]c3ccccc23)NC(=O)[C@H]([C@@H](C)O)NC1=O [3BP-4175] ({DOTA}-[X2]VECE[dP]DWLTW[Dap]C-NH2; lactam 3-12; linker 4-13 via mXylylene) | < 10 nM | A (t1/2>15.0 minutes) | < 10 nM | –
2 | CC(C)C[C@@H]1NC(=O)[C@H](Cc2c[nH]c3ccccc23)NC(=O)[C@H](CC(=O)O)NC(=O)[C@H]2CCCN2C(=O)[C@H](CCC(=O)O)NC(=O)[C@@H]2CSCc3cccc(c3)CSC[C@@H](C(N)=O)NC(=O)[C@H](CC(=O)NC[C@H](NC(=O)[C@@H](NC(=O)CN3CCC(NC(=O)CN4CCN(CC(=O)O)CCN(CC(=O)O)CCN(CC(=O)O)CC4)CC3)C(C)C)C(=O)N2)NC(=O)[C@H](Cc2c[nH]c3ccccc23)NC(=O)[C@H]([C@@H](C)O)NC1=O [3BP-4176] ({DOTA}-[X2]V[Dap]CE[dP]DWLTWDC-NH2; lactam 3-12; linker 4-13 via mXylylene) | < 10 nM | C (t1/2 between 2.1 and 5.0 minutes) | < 10 nM | –
3 | CC(C)CC(=O)Nc1cccc(C[C@@H]2NC(=O)[C@H](CC(=O)O)NC(=O)[C@H]3CCCN3C(=O)[C@H](CCC(=O)O)NC(=O)[C@@H](NC(=O)[C@H](Cc3ccc(O)cc3)NC(=O)[C@@H](NC(=O)CN3CCC(NC(=O)CN4CCN(CC(=O)O)CCN(CC(=O)O)CCN(CC(=O)O)CC4)CC3)C(C)C)CSCc3cccc(c3)CSC[C@@H](C(N)=O)NC(=O)[C@H](CO)NC(=O)[C@H](Cc3c[nH]c4ccccc34)NC(=O)[C@H]([C@@H](C)O)NC(=O)[C@H](CC(C)C)NC2=O)c1 [3BP-4236] ({DOTA}-[X2]VYCE[dP]D[X22]LTWSC-NH2; linker 4-13 via mXylylene) | < 10 nM | B (t1/2 between 5.1 and 15.0 minutes) | < 10 nM | –
4 | CC(C)C[C@@H]1NC(=O)[C@H](Cc2c[nH]c3ccccc23)NC(=O)[C@H](CC(=O)O)NC(=O)[C@H]2CCCN2C(=O)[C@H](CCC(=O)O)NC(=O)[C@@H]2CSCc3cccc(c3)CSC[C@@H](C(N)=O)NC(=O)[C@H](CNC(=O)C[C@H](NC(=O)CN3CCC(NC(=O)CN4CCN(CC(=O)O)CCN(CC(=O)O)CCN(CC(=O)O)CC4)CC3)C(=O)N2)NC(=O)[C@H](Cc2c[nH]c3ccccc23)NC(=O)[C@H]([C@@H](C)O)NC1=O [3BP-4254] ({DOTA}-[X2]DCE[dP]DWLTW[Dap]C-NH2; lactam 2-11; linker 3-12 via mXylylene) | < 10 nM | C (t1/2 between 2.1 and 5.0 minutes) | < 10 nM | –
5 | CC(C)C[C@@H]1NC(=O)[C@H](Cc2c[nH]c3ccccc23)NC(=O)[C@H](CC(=O)O)NC(=O)[C@H]2CCCN2C(=O)[C@H](CCC(=O)O)NC(=O)[C@@H]2CSCc3cccc(c3)CSC[C@@H](C(N)=O)NC(=O)[C@H](CNC(=O)C[C@H](NC(=O)C3CCN(C(=O)CN4CCN(CC(=O)O)CCN(CC(=O)O)CCN(CC(=O)O)CC4)CC3)C(=O)N2)NC(=O)[C@H](Cc2c[nH]c3ccccc23)NC(=O)[C@H]([C@@H](C)O)NC1=O [3BP-4256] ({DOTA-Inp}-DCE[dP]DWLTW[Dap]C-NH2; lactam 1-10; linker 2-11 via mXylylene) | < 10 nM | C (t1/2 between 2.1 and 5.0 minutes) | < 10 nM | –
6 | CC(C)C[C@@H]1NC(=O)[C@H](Cc2c[nH]c3ccccc23)NC(=O)[C@H](CC(=O)O)NC(=O)[C@H]2CCCN2C(=O)[C@H](CCC(=O)O)NC(=O)[C@@H]2CSCc3cccc(c3)CSC[C@@H](C(N)=O)NC(=O)[C@H](CNC(=O)C[C@H](NC(=O)CC3CCN(C(=O)CN4CCN(CC(=O)O)CCN(CC(=O)O)CCN(CC(=O)O)CC4)CC3)C(=O)N2)NC(=O)[C@H](Cc2c[nH]c3ccccc23)NC(=O)[C@H]([C@@H](C)O)NC1=O [3BP-4259] ({DOTA}-[X12]DCE[dP]DWLTW[Dap]C-NH2; lactam 2-11; linker 3-12 via mXylylene) | < 10 nM | D (t1/2≤2.0 minutes) | < 10 nM | –
7 | CC(C)C[C@@H]1NC(=O)[C@H](Cc2c[nH]c3ccccc23)NC(=O)[C@H](CC(=O)O)NC(=O)[C@H]2CCCN2C(=O)[C@H](CCC(=O)O)NC(=O)[C@@H]2CSCc3cccc(c3)CSC[C@@H](C(N)=O)NC(=O)[C@H](CNC(=O)C[C@H](NC(=O)c3cccc(CNC(=O)CN4CCN(CC(=O)O)CCN(CC(=O)O)CCN(CC(=O)O)CC4)c3)C(=O)N2)NC(=O)[C@H](Cc2c[nH]c3ccccc23)NC(=O)[C@H]([C@@H](C)O)NC1=O [3BP-4260] ({DOTA-3Amb}-DCE[dP]DWLTW[Dap]C-NH2; lactam 1-10; linker 2-11 via mXylylene) | < 10 nM | D (t1/2≤2.0 minutes) | < 10 nM | –
8 | CC(C)C[C@@H]1NC(=O)[C@H](Cc2c[nH]c3ccccc23)NC(=O)[C@H](CC(=O)O)NC(=O)[C@H]2CCCN2C(=O)[C@H](CCC(=O)O)NC(=O)[C@@H]2CSCc3cccc(c3)CSC[C@@H](C(N)=O)NC(=O)[C@H](CNC(=O)C[C@H](NC(=O)c3ccc(CNC(=O)CN4CCN(CC(=O)O)CCN(CC(=O)O)CCN(CC(=O)O)CC4)cc3)C(=O)N2)NC(=O)[C@H](Cc2c[nH]c3ccccc23)NC(=O)[C@H]([C@@H](C)O)NC1=O [3BP-4261] ({DOTA-4Amb}-DCE[dP]DWLTW[Dap]C-NH2; lactam 1-10; linker 2-11 via mXylylene) | < 10 nM | C (t1/2 between 2.1 and 5.0 minutes) | < 10 nM | –
9 | CC(C)C[C@@H]1NC(=O)[C@H](Cc2c[nH]c3ccccc23)NC(=O)[C@H](CC(=O)O)NC(=O)[C@H]2CCCN2C(=O)[C@H](CCC(=O)O)NC(=O)[C@@H]2CSCc3cccc(c3)CSC[C@@H](C(N)=O)NC(=O)[C@H](CNC(=O)C[C@H](NC(=O)CCCNC(=O)CN3CCN(CC(=O)O)CCN(CC(=O)O)CCN(CC(=O)O)CC3)C(=O)N2)NC(=O)[C@H](Cc2c[nH]c3ccccc23)NC(=O)[C@H]([C@@H](C)O)NC1=O [3BP-4263] ({DOTA-GABA}-DCE[dP]DWLTW[Dap]C-NH2; lactam 1-10; linker 2-11 via mXylylene) | – | C (t1/2 between 2.1 and 5.0 minutes) | < 10 nM | < 10 nM
10 | CC(C)C[C@@H]1NC(=O)[C@H](Cc2cccc(NC(=O)C[C@@H]3NC(=O)CNC3=O)c2)NC(=O)[C@H](CC(=O)O)NC(=O)[C@H]2CCCN2C(=O)[C@H](CCC(=O)O)NC(=O)[C@@H](NC(=O)[C@H](Cc2ccc(O)cc2)NC(=O)[C@@H](NC(=O)CN2CCC(NC(=O)CN3CCN(CC(=O)O)CCN(CC(=O)O)CCN(CC(=O)O)CC3)CC2)C(C)C)CSCc2cccc(c2)CSC[C@@H](C(N)=O)NC(=O)[C@H](CO)NC(=O)[C@H](Cc2c[nH]c3ccccc23)NC(=O)[C@H]([C@@H](C)O)NC1=O [3BP-4288] | – | D (t1/2≤2.0 minutes) | 10 to 79.4 nM | 100 to 794 nM
